# Measured values from the kinase profiling compilation of Christmann-Franck et al. (2016).
# Tests used:
# Test in all cases: radiometric filter-binding kinase assay, Kinase HotSpot
# Details in all cases: compound 0.5 µM; ATP 10 µM
# [1] = molecular target: ACVRL1 (human) (UniProt P37023)
# [2] = molecular target: ADRBK2 (human) (UniProt P35626)
# [3] = molecular target: BRSK2 (human) (UniProt Q8IWQ3)
# [4] = molecular target: CAMKK1 (human) (UniProt Q8N5S9)
# [5] = molecular target: CDK1 CCNA2 (human) (UniProt P06493+P20248)
# [6] = molecular target: CDK1 CCNB1 (human) (UniProt P06493+P14635)
# [7] = molecular target: CDK6 CCND1 (human) (UniProt Q00534+P24385)
# Sequence of CDK6 CCND1 (human) (P24385 whole entry, looked up): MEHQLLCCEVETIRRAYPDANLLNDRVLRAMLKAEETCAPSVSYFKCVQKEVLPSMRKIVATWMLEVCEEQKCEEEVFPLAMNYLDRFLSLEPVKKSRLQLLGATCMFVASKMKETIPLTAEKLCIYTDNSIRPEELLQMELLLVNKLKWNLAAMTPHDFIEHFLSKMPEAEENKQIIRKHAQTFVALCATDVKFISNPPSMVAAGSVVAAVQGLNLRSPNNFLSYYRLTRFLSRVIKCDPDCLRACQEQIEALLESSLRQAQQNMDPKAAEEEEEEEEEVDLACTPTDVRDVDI
# Sequence of CDK6 CCND1 (human) (Q00534 whole entry, looked up): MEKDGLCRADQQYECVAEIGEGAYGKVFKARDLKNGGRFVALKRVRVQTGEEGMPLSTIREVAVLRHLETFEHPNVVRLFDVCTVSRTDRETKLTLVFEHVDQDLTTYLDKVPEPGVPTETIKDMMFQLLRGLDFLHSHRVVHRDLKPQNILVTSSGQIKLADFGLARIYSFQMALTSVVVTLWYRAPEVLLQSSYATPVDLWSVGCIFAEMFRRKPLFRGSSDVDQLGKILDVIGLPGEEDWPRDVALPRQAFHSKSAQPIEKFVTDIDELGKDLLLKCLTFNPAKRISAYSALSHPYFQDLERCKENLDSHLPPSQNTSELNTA
# [8] = molecular target: CDK9 CCNK (human) (UniProt O75909+P50750)
# [9] = molecular target: CSNK1E (human) (UniProt P49674)
# [10] = molecular target: EPHA2 (human) (UniProt P29317)
# [11] = molecular target: EPHA7 (human) (UniProt Q15375)
# [12] = molecular target: FER (human) (UniProt P16591)
# [13] = molecular target: FLT3 (human) (UniProt P36888)
# [14] = molecular target: GRK7 (human) (UniProt Q8WTQ7)
# [15] = molecular target: GSK3B (human) (UniProt P49841)
# Sequence of GSK3B (human) (P49841 whole entry, looked up): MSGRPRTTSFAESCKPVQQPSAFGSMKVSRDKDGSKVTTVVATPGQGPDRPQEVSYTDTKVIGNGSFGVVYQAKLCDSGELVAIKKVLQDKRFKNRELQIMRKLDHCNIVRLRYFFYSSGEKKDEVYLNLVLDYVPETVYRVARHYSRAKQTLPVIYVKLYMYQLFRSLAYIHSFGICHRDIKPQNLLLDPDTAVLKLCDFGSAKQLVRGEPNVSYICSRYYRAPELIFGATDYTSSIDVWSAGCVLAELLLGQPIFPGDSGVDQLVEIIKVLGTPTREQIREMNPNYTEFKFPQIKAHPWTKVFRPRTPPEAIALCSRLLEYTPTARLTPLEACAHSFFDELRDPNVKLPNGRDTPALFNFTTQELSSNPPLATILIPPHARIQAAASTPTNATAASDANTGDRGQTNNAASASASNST
# [16] = molecular target: HCK (human) (UniProt P08631)
# [17] = molecular target: IRAK1 (human) (UniProt P51617)
# Sequence of IRAK1 (human) (P51617 whole entry, looked up): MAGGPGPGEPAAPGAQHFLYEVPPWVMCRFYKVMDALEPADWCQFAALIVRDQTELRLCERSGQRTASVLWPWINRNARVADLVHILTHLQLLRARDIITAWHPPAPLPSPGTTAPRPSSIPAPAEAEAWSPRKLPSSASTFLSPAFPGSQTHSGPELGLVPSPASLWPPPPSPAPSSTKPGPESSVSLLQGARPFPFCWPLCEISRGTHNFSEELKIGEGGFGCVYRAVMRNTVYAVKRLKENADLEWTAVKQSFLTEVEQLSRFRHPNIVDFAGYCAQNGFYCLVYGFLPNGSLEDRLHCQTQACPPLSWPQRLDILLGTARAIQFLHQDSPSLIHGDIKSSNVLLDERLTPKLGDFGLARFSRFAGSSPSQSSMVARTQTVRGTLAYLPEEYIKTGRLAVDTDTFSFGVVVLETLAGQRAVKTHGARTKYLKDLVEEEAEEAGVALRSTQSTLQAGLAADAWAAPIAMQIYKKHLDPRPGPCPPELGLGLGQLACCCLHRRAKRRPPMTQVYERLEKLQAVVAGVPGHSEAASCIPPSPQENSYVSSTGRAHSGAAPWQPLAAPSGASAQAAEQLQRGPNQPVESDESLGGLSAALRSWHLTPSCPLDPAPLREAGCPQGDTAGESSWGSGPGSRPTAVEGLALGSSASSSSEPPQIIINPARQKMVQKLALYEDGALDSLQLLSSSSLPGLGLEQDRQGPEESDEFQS
# [18] = molecular target: LIMK1 (human) (UniProt P53667)
# [19] = molecular target: LTK (human) (UniProt P29376)
# [20] = molecular target: MAP3K9 (human) (UniProt P80192)
# [21] = molecular target: MLTK (human) (UniProt Q9NYL2)
# [22] = molecular target: MST4 (human) (UniProt Q9P289)
# [23] = molecular target: NUAK1 (human) (UniProt O60285)
# [24] = molecular target: PAK6 (human) (UniProt Q9NQU5)
# Sequence of PAK6 (human) (Q9NQU5 whole entry, looked up): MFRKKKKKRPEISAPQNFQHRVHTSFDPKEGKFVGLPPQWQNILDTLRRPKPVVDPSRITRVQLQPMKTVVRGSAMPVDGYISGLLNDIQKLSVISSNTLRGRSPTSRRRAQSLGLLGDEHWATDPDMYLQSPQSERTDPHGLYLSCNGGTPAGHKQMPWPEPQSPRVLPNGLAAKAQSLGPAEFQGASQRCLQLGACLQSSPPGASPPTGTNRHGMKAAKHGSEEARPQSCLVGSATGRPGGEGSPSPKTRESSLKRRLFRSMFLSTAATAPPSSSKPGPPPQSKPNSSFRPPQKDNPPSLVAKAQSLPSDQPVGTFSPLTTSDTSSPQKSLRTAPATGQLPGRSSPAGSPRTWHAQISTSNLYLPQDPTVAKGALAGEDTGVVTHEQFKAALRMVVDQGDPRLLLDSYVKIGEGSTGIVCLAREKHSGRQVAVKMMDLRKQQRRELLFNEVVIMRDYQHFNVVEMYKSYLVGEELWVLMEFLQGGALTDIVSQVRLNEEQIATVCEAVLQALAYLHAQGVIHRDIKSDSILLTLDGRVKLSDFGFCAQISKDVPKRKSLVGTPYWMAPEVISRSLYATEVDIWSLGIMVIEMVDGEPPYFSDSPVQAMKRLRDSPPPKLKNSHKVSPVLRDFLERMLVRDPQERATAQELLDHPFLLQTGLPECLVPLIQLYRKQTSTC
# [25] = molecular target: PIM2 (human) (UniProt Q9P1W9)
# [26] = molecular target: PKN1 (human) (UniProt Q16512)
# Sequence of PKN1 (human) (Q16512 whole entry, looked up): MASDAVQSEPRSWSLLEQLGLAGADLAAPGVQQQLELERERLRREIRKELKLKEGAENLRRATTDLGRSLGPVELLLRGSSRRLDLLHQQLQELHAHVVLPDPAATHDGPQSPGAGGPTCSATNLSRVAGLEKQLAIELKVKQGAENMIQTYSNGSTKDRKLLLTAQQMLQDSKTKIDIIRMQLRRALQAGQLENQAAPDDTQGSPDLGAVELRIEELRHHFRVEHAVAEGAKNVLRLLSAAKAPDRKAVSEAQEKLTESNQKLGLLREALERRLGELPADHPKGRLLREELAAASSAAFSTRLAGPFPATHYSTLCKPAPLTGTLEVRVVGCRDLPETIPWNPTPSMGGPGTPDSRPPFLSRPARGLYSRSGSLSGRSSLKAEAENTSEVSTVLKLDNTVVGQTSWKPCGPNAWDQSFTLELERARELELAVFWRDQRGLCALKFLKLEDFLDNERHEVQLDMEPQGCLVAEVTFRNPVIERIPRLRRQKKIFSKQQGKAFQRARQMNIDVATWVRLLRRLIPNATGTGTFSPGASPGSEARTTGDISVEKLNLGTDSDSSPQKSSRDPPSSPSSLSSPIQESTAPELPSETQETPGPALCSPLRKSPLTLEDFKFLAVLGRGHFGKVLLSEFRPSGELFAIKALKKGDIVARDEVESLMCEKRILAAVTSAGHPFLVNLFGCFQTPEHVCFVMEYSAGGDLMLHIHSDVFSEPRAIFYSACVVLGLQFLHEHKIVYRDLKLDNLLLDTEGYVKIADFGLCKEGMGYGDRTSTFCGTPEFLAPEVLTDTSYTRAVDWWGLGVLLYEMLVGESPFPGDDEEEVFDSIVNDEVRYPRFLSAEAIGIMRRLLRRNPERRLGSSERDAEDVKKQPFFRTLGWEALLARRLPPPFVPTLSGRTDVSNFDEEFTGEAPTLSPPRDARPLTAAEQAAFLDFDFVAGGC
# [27] = molecular target: PRKCB1 (human) (UniProt P05771)
# [28] = molecular target: PRKCI (human) (UniProt P41743)
# Sequence of PRKCI (human) (P41743 whole entry, looked up): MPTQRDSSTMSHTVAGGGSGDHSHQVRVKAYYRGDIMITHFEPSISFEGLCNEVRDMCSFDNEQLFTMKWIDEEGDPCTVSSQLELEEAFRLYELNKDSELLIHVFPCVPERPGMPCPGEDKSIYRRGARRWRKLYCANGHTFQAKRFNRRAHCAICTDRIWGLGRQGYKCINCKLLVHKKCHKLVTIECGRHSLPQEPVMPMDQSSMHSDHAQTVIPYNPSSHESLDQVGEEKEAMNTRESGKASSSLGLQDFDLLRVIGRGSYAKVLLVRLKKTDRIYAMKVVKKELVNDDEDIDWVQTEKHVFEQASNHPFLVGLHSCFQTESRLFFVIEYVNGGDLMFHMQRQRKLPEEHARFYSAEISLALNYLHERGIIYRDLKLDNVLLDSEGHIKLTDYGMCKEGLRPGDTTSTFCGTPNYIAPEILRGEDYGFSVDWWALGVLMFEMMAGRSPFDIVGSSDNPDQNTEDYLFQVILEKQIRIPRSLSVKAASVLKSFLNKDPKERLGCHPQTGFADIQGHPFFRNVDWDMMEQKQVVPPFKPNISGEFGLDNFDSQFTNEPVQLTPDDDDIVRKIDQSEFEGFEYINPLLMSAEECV
# [29] = molecular target: PRKD1 (human) (UniProt Q15139)
# [30] = molecular target: PTK2 (human) (UniProt Q05397)
# [31] = molecular target: RAF1 (human) (UniProt P04049)
# [32] = molecular target: RPS6KA5 KD2 (human) (UniProt O75582)
# [33] = molecular target: RPS6KB2 (human) (UniProt Q9UBS0)
# Sequence of RPS6KB2 (human) (Q9UBS0 whole entry, looked up): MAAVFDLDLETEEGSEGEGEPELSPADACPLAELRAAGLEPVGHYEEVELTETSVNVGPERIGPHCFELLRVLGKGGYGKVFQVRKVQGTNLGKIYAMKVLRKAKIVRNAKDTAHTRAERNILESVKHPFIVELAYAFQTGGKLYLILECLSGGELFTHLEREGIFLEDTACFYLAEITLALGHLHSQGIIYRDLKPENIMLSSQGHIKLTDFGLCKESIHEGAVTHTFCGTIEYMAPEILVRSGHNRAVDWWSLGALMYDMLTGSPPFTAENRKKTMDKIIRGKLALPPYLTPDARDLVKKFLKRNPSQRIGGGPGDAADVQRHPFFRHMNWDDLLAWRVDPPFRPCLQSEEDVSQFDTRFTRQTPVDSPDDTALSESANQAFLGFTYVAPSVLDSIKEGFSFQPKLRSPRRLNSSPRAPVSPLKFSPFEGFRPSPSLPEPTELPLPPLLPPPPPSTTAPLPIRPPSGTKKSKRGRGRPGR
# [34] = molecular target: SRPK3 (human) (UniProt Q9UPE1)
# [35] = molecular target: STK10 (human) (UniProt O94804)
# [36] = molecular target: STK11 (human) (UniProt Q15831)
# [37] = molecular target: STK17A (human) (UniProt Q9UEE5)
# [38] = molecular target: TAOK1 (human) (UniProt Q7L7X3)
# [39] = molecular target: TAOK2 (human) (UniProt Q9UL54)
# [40] = molecular target: VRK1 (human) (UniProt Q99986)
# [41] = molecular target: ZAP70 (human) (UniProt P43403)
# [42] = molecular target: SRPK2 (human) (UniProt P78362)
# Sequence of ACVRL1 (human) (P37023 whole entry, looked up): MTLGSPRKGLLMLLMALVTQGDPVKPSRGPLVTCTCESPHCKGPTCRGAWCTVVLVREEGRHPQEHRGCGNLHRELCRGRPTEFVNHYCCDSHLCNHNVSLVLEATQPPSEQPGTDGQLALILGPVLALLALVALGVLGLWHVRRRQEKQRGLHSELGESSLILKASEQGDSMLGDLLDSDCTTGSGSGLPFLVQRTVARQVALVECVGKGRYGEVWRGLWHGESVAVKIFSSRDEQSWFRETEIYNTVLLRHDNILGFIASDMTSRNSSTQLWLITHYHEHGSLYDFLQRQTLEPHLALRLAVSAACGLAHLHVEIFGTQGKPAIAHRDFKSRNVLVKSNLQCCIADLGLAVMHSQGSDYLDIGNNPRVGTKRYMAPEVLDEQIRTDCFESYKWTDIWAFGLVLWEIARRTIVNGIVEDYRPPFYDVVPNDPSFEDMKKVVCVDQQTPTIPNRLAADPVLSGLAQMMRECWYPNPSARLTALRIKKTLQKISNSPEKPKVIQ
structure (smiles),measurement,setting,value
NC(=O)c1ccc(N(C(N)=O)c2c(F)cccc2F)nc1-c1ccc(F)cc1F,residual activity,[1],99.3%
same,residual activity,[2],98.1%
same,residual activity,[3],96.6%
same,residual activity,[4],98.9%
same,residual activity,[5],101%
same,residual activity,[6],95.7%
same,residual activity,[7],95.1%
same,residual activity,[8],106%
same,residual activity,[9],98.2%
same,residual activity,[10],89%
same,residual activity,[11],79.9%
same,residual activity,[12],95.6%
same,residual activity,[13],97.2%
same,residual activity,[14],108%
same,residual activity,[15],101%
same,residual activity,[16],89.5%
same,residual activity,[17],94.2%
same,residual activity,[18],98.5%
same,residual activity,[19],95%
same,residual activity,[20],112%
same,residual activity,[21],97.9%
same,residual activity,[22],117%
same,residual activity,[23],108%
same,residual activity,[24],103%
same,residual activity,[25],98.3%
same,residual activity,[26],101%
same,residual activity,[27],86.1%
same,residual activity,[28],99.1%
same,residual activity,[29],97.7%
same,residual activity,[30],98.9%
same,residual activity,[31],97.5%
same,residual activity,[32],92.8%
same,residual activity,[33],100%
same,residual activity,[34],105%
same,residual activity,[35],93.8%
same,residual activity,[36],99.5%
same,residual activity,[37],100%
same,residual activity,[38],96.2%
same,residual activity,[39],98.7%
same,residual activity,[40],104%
same,residual activity,[41],100%
C#Cc1cccc(Nc2ncnc3cc(OCCOC)c(OCCOC)cc23)c1,residual activity,[1],101%
same,residual activity,[2],94.8%
same,residual activity,[3],100%
same,residual activity,[4],98.7%
same,residual activity,[5],99.6%
same,residual activity,[6],97.2%
same,residual activity,[7],98.7%
same,residual activity,[8],102%
same,residual activity,[9],98.2%
same,residual activity,[10],91.3%
same,residual activity,[11],69.8%
same,residual activity,[12],94%
same,residual activity,[14],98.3%
same,residual activity,[15],102%
same,residual activity,[17],95.9%
same,residual activity,[18],90.4%
same,residual activity,[19],66.3%
same,residual activity,[20],111%
same,residual activity,[21],92.2%
same,residual activity,[22],106%
same,residual activity,[23],98%
same,residual activity,[24],104%
same,residual activity,[25],97.9%
same,residual activity,[26],108%
same,residual activity,[27],92.4%
same,residual activity,[28],99%
same,residual activity,[29],94.8%
same,residual activity,[30],108%
same,residual activity,[31],93.7%
same,residual activity,[32],96.8%
same,residual activity,[33],103%
same,residual activity,[42],101%
same,residual activity,[34],101%
same,residual activity,[35],20.3%
same,residual activity,[37],99.7%
same,residual activity,[38],98.3%
same,residual activity,[39],106%
same,residual activity,[40],103%
same,residual activity,[41],94.4%
CS(=O)c1ccc(-c2nc(-c3ccc(F)cc3)c(-c3ccncc3)[nH]2)cc1 (stereo not given),residual activity,[1],97.7%
same,residual activity,[2],98.2%
same,residual activity,[3],101%
same,residual activity,[4],125%
same,residual activity,[5],91.2%
same,residual activity,[6],99.1%
same,residual activity,[7],100%
same,residual activity,[8],98.6%
same,residual activity,[9],31%
same,residual activity,[10],94.8%
same,residual activity,[11],83.1%
same,residual activity,[12],95%
same,residual activity,[13],91.5%
same,residual activity,[14],107%
same,residual activity,[15],80.2%
same,residual activity,[16],96.1%
same,residual activity,[17],129%
same,residual activity,[18],91.3%
same,residual activity,[19],101%
same,residual activity,[20],95%
same,residual activity,[21],100%
same,residual activity,[22],96.8%
same,residual activity,[23],94.4%
same,residual activity,[24],76.7%
same,residual activity,[25],104%
same,residual activity,[26],96.5%
same,residual activity,[27],74%
same,residual activity,[28],95.2%
same,residual activity,[30],95.5%
same,residual activity,[31],41.1%
same,residual activity,[32],103%
same,residual activity,[33],97.2%
same,residual activity,[42],102%
same,residual activity,[34],99.4%
same,residual activity,[35],89.1%
same,residual activity,[36],81.6%
same,residual activity,[37],98.9%
same,residual activity,[38],97.9%
same,residual activity,[39],94%
same,residual activity,[41],94.4%
